Test results taken from patent US9643968B2, “Fused acridine derivative and pharmaceutical composition, preparation method and use thereof” (Peking University, priority 2014, dated 2017).

Experiments:
U87MG cells = experiment: In vivo antitumor activity test, U87MG subcutaneous xenograft; design: species or system BALB/c nude mice; conditions: oral qd × 5/w; for tumor inhibition rate (IR): 10 doses, by tumor weight
Method: (§1) Animals: Female 6-8 weeks BALB/c nude mice weighed 16 to 18 g. They were raised at SPF-level animal room with a 12 h light-dark cycle; drinking and eating were provided ad libitum.
(§2) Under aseptic conditions, U87MG cells in the logarithmic phase were digested and its density was adjusted. U87MG cells were inoculated hypodermically in BALB/c nude mice, 0.1 mL for each mouse. The diameter of the transplantation was measured with a Vernier caliper. After their tumor size was about 100-200 mm^3, 36 mice were randomly divided into 5 groups according to the tumor size. The mice of each group was orally administered the dose respectively according to the above-mentioned schedule, and the mice of the vehicle group were given same dose of saline. The first day of dosing named for D1. The long diameter and short diameter of the tumor size of each mouse were measured twice a week, and the body weights were recorded at the same time.
Indicators were observed, measured, and recorded from the first day of dosing. The tumor size was measured using a Vernier caliper to calculate tumor volume change and the tumor growth. After the tumor-burdened mice were executed and dissected, the tumor tissues were separated, and weighed.
(§3) Indicators for antitumor efficacy evaluation including: relative tumor inhibition rate, body weight, general state of the mice and related toxicity index. Curves of tumor growth and body weight change of every group were plotted at the end of the experiment.
The calculation formula for tumor volume (TV) is: TV=½×a×b^2, where a and b means long diameter and short diameter of the tumor size respectively.
Tumor inhibition rate IR (%)=(1−TTW/CTW)×100%, TTW: TW of the treatment group; CTW: TW of the control group.
Statistical analysis: Data were analyzed using SPSS 11.0 with Student t-test for comparisons and ANOVA. P-values <0.05 were considered significant.

tumor cells (U87MG) = experiment: Assay for inhibiting cancer cell clone formation (soft agar); assay type: cell-based, human; conditions: concentration range from 0.020 to 0.090 μM, 10-14 days
Method: Materials and methods: The tested tumor cells (U87MG) in the logarithmic phase were digested with 0.25% trypsin then percussed gently to the single cell state, and counted the live cells. The cells density was adjusted to 1×10^6[…] with DMEM containing 20% fetal bovine serum, and then diluted gradiently according to the experiment requirement.
Two concentrations (1.2% and 0.7%) of low melting point agarose fluid were prepared with distilled water respectively. A mixture of 1.2% agarose fluid and 2×DMEM medium (contains 2× antibiotics and 20% calf serum) was prepared in 1:1 ratio, then transferred (3 mL) into 6 cm diameter flat dishes, cooled to solidification to furnish the bottom agar which was stored in a CO2 incubator. The cell suspension (0.2 mL) was added to a mixture of 0.7% agarose and 2×DMEM medium which was prepared in 1:1 ratio in sterile tubes, and thoroughly mixed before injection to the precoated dishes to form the double layer agar. After the upper agar being solidified, the dishes were incubated in 37° C. and 5% CO2 for 10-14 days, each experiment was performed in 3-6 times.
The number of clones was counted under an inverted microscope. The clone formation rate was calculated.

[1] = Body weight in U87MG tumor-bearing mice; assay type: in vivo, BALB/c nude mice; conditions: oral qd × 5/w
Method: as §1, §2, §3

[2] = system: PC-3 (human prostate cancer); experiment: MTT in vitro cytotoxicity, PC-3; assay type: cell-based; conditions: 72 hr incubation, read-out: IC50 PC3
Method: (§4) Materials and methods: MTT (3-[4,5-dimethylthiazol-2-yl]-diphenyl tetrazolium bromide) method was employed to determine the antiproliferative activity of all the compounds of the Examples and Contrasting Examples in vitro against selected cell lines, including HCT116 (human colon cancer cell), PC-3 (human prostate cancer), HepG2 (human hepatocellular carcinoma), SK-OV-3 (human ovarian adenocarcinoma), MCF-7 (human breast cancer), U87MG (human glioblastoma cell) cell lines.
(§5) Procedure: Human tumor cells of HCT116, PC-3, HepG2, SK-OV-3, MCF-7, and U87MG were in vitro cultured, and collected until the cells grow to the logarithmic phase. The cells were centrifuged for 5 minutes at 1000 rpm, and supernatant was discarded. Subsequently appropriate culture medium was added to suspend the precipitation, and the concentration of cells was adjusted to 3.5˜5.5×10^4/mL. the suspensions of cells were seeded in 96-well microplate at 100 μL per well, and incubated in incubator (37° C., 5% CO2) for 24 hr. The compound to test was added. For the control group, equivalent concentration of DMSO (final concentration 0.5%) was added. For each group, three copy wells were set. After incubated for 72 hr, 20 μL 5 mg/mL of MTT was added into each well, and placed at 37° C. for 3 hr. 150 μL of DMSO was added into each wells, and vibrated the shaker at 37° C. for 5 mins, then measured the absorbance (OD) value at 492 nm/620 nm. The IC50 values were calculated using Prism 5.0 software.

[3] = system: U87MG (human glioblastoma cell); experiment: MTT in vitro cytotoxicity, U87MG; assay type: cell-based; conditions: U-87 MG, 72 hr incubation
Method: as §4, §5

[4] = system: SK-OV-3 (human ovarian adenocarcinoma); experiment: MTT in vitro cytotoxicity, SK-OV-3; assay type: cell-based; conditions: 72 hr incubation
Method: as §4, §5

[5] = system: HCT116 (human colon cancer cell); experiment: MTT in vitro cytotoxicity, HCT116; assay type: cell-based; conditions: HCT-116, 72 hr incubation
Method: as §4, §5

[6] = system: HepG2 (human hepatocellular carcinoma); experiment: MTT in vitro cytotoxicity, HepG2; assay type: cell-based; conditions: 72 hr incubation
Method: as §4, §5

[7] = system: MCF-7 (human breast cancer); experiment: MTT in vitro cytotoxicity, MCF-7; assay type: cell-based; conditions: MCF7, 72 hr incubation
Method: as §4, §5

For `COc1ccc2nc3c(C)ccc4c3c(c2c1)C(=O)N4CCN(C)C.O=C(O)/C=C/C(=O)O` [Compound 5c′, 2-(2-(dimethylamino)ethyl)-9-methoxy-5-methylpyrrolo[2,3,4-kl]-acridin-1-(2H)-one fumarate], the “tumor size compared with the vehicle” value (U87MG cells; high dose group (80 mg/kg)) was “significantly smaller than the vehicle”, the “tumor inhibition rate (IR)” value (U87MG cells; high dose group (80 mg/kg)) was 91% and the “tumor size compared with the vehicle” value (U87MG cells; median dose group (40 mg/kg)) was “significantly smaller than the vehicle”. The “tumor inhibition rate (IR)” value (U87MG cells; median dose group (40 mg/kg)) was 69%, the “inhibition of glioma cell clone formation” value (tumor cells (U87MG)) was “significantly inhibited” and the “animal weight compared with the vehicle” value ([1]; high dose group (80 mg/kg)) was “grew slowly compared with the vehicle”. For the same compound, the “animal weight loss compared with the positive control (TMZ) group” value ([1]; high dose group (80 mg/kg)) was “significantly lower than the positive control” and the “animal weight compared with the vehicle” value ([1]; median dose group (40 mg/kg)) was “grew slowly compared with the vehicle”.

In the case of `O=C1c2c3ccccc3nc3cccc(c23)N1c1ccccc1` [Compound 6b, 2-phenylpyrrolo[2,3,4-kl]acridin-1-(2H)-one, reference compound], the IC50 [2] is reported as > 50000 nM, the IC50 [3] is reported as > 50000 nM and the IC50 [4] is reported as > 50000 nM. The IC50 [5] was > 50000 nM and the IC50 [6] was > 50000 nM.

With `CN(C)CCN1C(=O)c2c3cc(Br)ccc3nc3cccc1c23` [Compound 7a, 9-bromo-2-(2-(dimethylamino)ethyl)pyrrolo[2,3,4-kl]acridin-1-(2H)-one] the IC50 [5] was 1870 nM, the IC50 [6] was 1850 nM and the IC50 [7] was 1970 nM.

Compound `CN(C)CCCN1C(=O)c2c3cc(Br)ccc3nc3cccc1c23` [Compound 7b, 9-bromo-2-(3-(dimethylamino)propyl)pyrrolo[2,3,4-kl]acridin-1-(2H)-one] has an IC50 [5] of 2280 nM, an IC50 [6] of 3840 nM and an IC50 [7] of 2150 nM.

Compound `CN(C)CCCN1C(=O)c2c3cc(I)ccc3nc3cccc1c23` [Compound 7d, 2-(3-(dimethylamino)propyl)-9-iodopyrrolo[2,3,4-kl]acridin-1-(2H)-one] has an IC50 [5] of 2640 nM, an IC50 [6] of 3780 nM and an IC50 [7] of 2800 nM.

With `Cn1nnc2c(C(N)=O)ncn2c1=O` [TMZ, Temozolomide, reference compound] the “animal weight compared with the vehicle” value ([1]; 50 mg/kg) was “significant lower compared with the vehicle”.
